Experimental findings from patent publication US6541468B1, “Indolocarbazole derivatives useful for the treatment of neurodegenerative diseases and cancer” (Bayer Corporation, priority 1998, dated 2003) are described below.

The term IC50 denotes the concentration needed to halve the response being measured. The low end stands for higher potency, the high end for lower potency.

The target of the test is T1, PK40 (ERK2) (Homo sapiens, UniProt P28482).
T1 construct: made in house; host or cells: E. coli BL21 pLysS (printed 'B121pLysS'), pET-14b vector
T1 sequence (P28482 whole entry): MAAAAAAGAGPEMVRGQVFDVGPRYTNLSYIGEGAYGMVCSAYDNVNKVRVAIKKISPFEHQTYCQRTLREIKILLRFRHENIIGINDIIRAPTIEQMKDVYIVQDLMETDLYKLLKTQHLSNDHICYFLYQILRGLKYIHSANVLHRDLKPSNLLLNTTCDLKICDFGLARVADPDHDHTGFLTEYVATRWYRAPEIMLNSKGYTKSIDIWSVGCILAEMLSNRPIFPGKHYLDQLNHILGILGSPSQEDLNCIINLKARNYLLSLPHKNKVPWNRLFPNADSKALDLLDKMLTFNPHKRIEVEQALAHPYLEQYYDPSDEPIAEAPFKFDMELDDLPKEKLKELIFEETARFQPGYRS
Kind of test: PK40(ERK2) kinase inhibition assay. Type of test: biochemical. The conditions noted are these: 0.25 mM ATP, myelin basic protein substrate. The method, then: Preparation of ERK2: Recombinant human ERK2 with a N-terminal histidine (his) tag was prepared as follows: An ERK2 cDNA clone was amplified from a human frontal cortex library by PCR with primers matching the published human sequence [Gonzales F. A. et al, FEBS Lett. 304, 170-178 (1992)]. The histidine tag was introduced by site-directed mutagenesis. The cDNA was cloned into a pET-14b (Novagen) vector and transfected into the E. coli lysogen strain B121pLysS. Single colony transformants were grown in LB medium containing […] chloramphenicol to maintain pLysS and […] to an O.D.600 OF 0.6. The culture was then induced with 0.4 mM IPTG for 4 hours. The expressed ERK2 protein was then analyzed on a 10% SDS PAGE by both coomassie blue staining and anti-ERK Western blotting. […]
Enzyme, substrate and inhibitor were preincubated for 5-10 min at 4° C. in assay buffers containing a final concentration of 2% DMSO before initiating the reaction with 0.25 mM γ^2P-ATP. […] The filtermats were washed twice for several hours with TCA/PPA until all background radioactivity was removed. Precipitable counts were quantitated directly on the filtermat with a microbeta scintillation counter system (Wallac-Pharmacia). Inhibitor data were subjected to curve fitting and IC50 values were calculated from these curves using the GraphIt program.

Regarding `COC(=O)[C@@]1(O)C[C@H]2C[C@@H]1n1c3ccccc3c3c4c(c5c6ccccc6n2c5c31)C(=O)NC4=O` (relative stereo) [CIII, 9,12-Methano-1H-diindolo[1,2,3-fg:3′,2′,1′-kl]pyrrolo[3,4-I][1,6] benzodiazocine-10-carboxylic acid, 2,3,9,10,11,12-hexahydro-10-hydroxy-1,3-dioxomethyl ester, (9α,10β,12α)], the IC50 was greater than 30 µM.

On to `CNC(=O)[C@]1(O)CC2CC1n1c3ccccc3c3c4c(c5c6ccccc6n2c5c31)C(=O)NC4=O` (stereo partly drawn) [CII, 9,12-Methano-1H-diindolo[1,2,3-fg:3′,2′,1′-kl]pyrrolo[3,4-I][1,6] benzodiazocine-10-carboxamide, 2,3,9,10,11,12-hexahydro-10-hydroxy-N-methyl-1,3-dioxo-(9α,10β,12α)], for which the IC50 was 0.044 µM.
